In patent publication US6406679B1, “Use of HL-60-related lectins in drug delivery and detection of lectin-expressing cells” (Incyte Pharmaceuticals, Inc., priority 1992, dated 2002):

Test system: BALB/c mice
Experiment: B-cell repertoire: hybridoma clones producing antibodies against the immunizing antigen
Format: in vivo, mouse
Settings: for Number of Clones Producing Antibodies: 180 primary clones; for Experimental % of Control: clones with lectin vs antigen only
Method: The effect of the recombinant lectin on B-cell activation in BALB/c mice was also assayed using standard assays determining the number of hybridomas secreting antibodies to the administered antigen.
Three BALB/c female mice (7-8 weeks old) were injected intraperitoneally with 5 μg of […], tetanus toxoid or pneumococcal polysaccharide, respectively, in complete Freund's adjuvant. Two weeks later, the mice were injected intravenously with the same amount of antigen in 0.15 M sodium phosphate buffer, pH 7.4. […]. A mixture of capsular polysaccharide extracts from 23 different serotypes of Streptococcus pneumoniae (Pneumovax®) was obtained from Merck Sharp & Dohme, Inc. (West Point, Pa.). Three other mice of the same strain were similarly immunized with these antigens in combination with 15 μg of the recombinant lectin; controls received only the antigens.
The animals were sacrificed 4 days after the booster injection and spleen cells (10^8 cells) were fused with the nonsecreting B-lymphocytoma cell line SP2-OAg14 (2×10^7 cells). The cell mixture was distributed in 6×96 Costar tray wells (2×10^5 cells/well) with a feeder layer of mouse peritoneal macrophages (5×10^5 cells/well). From the third day in culture HAT (hypoxanthine-aminopterin-thymidine) medium was added. After 10-14 days, supernatants were assayed for binding to the respective antigens used for immunization using an enzyme-linked immunosorbent assay (ELISA).

Substance: Lectin: Soluble 14 kD β-galactoside-binding HL-60/placenta lectin of FIG. 1 (SEQ ID NO:2), prepared recombinantly in E. coli
- Number of Clones Producing Antibodies (Pneumococcal polysaccharide + 15 μg lectin): 111
- Experimental % of Control (Pneumococcal polysaccharide): 78%
- Number of Clones Producing Antibodies (Tetanus toxoid + 15 μg lectin): 79
- Experimental % of Control (Tetanus toxoid): 48%
- Number of Clones Producing Antibodies (Torpedo receptor + 15 μg lectin): 54
- Experimental % of Control (Torpedo receptor): 41%
